Converted amounts (≈) assume the structure as drawn. “And” between values parts separate entries of the source, which are not always exact repeats. Equal values may be shown once. Read-outs that look alike come from different tables or passages of the source.
Assays:
[1] = tested on: Staphylococcus epidermidis ATCC 12228; test: MIC determination; format: cell-based; conditions: ATCC12228
[2] = tested on: E. faecium 3303; test: microbe, parasite or virus in culture; format: cell-based, Enterococcus faecium; conditions: for MIC Alone / MIC: compound alone in checkerboard; for Max. fold change in MIC: decrease; for MIC: Enterococcus faecium, 3303, read-out: MIC Alone, E. faecium 3303
Description: In therapeutic applications, synergy between active ingredients occurs when an observed combined therapeutic effect is greater than the sum of therapeutic effects of individual active ingredients, or a new therapeutic effect is produced that the active ingredients could not produce alone. […] In this context, the enhancement of therapeutic effect may take the form of increased efficacy or potency and/or decreased adverse effects. The synergistic effect may be mediated in whole or in part by the pharmacokinetics and/or pharmacodynamics of the active ingredients in a subject, so that the amount and proportion of the ingredients in the formulation may be synergistic in vivo. This in vivo synergy may be effected with a formulation that includes the active ingredients in amounts and proportions that are also synergistic in in vitro assays of efficacy. As used herein, the term “synergistically effective amounts” accordingly refers to amounts that are synergistic in vivo and/or in vitro. A numeric quantification of synergy is often expressed as a fractional inhibitory concentration index (FICI), which represents the sum of the fractional inhibitory concentrations (FICs) of each drug tested, where the FIC is determined for each drug by dividing the minimum inhibitory concentration (MIC, the lowest concentration of the drug which prevents visible growth of the bacterium in a standard in vitro assay-standard colorometric assay based on resazurin) of each drug when used in combination by the MIC of each drug when used alone. In very general terms, a FICI lower or higher than 1 indicates positively correlated activity (at least additive or potentiation) or an absence of positive interactions, respectively. More definitively, synergy of two compounds may be conservatively defined as a FICI of ::::0.5 (see Odds, 2003; with additivity or potentiation corresponding to a FICI of >0.5 to ::::0.75; no interaction (indifference) corresponding to a FICI of >1 to ::::4; and antagonism corresponding to a FICI of >>4). Synergy of three compounds has been defined as a FICI of ::::1.0. (Berenbaum, 1978; Yu et al., 1980). To estimate the optimal concentrations in triple combinations, the optimal concentrations of trans-caryophyllene and cannabinoid were utilized in combination with a series of daptomycin dilutions.
Pre-cultures of bacteria growing in their corresponding liquid media (defined below) were diluted to an 00600 of 0.0025 and 100 μl was added to 100 μl of medium containing serial 2-fold dilutions of cannabinoid (cannabinoid stocks, in methanol or acetonitrile for acidic forms, were diluted in growth medium) in 96-well plates. Plates were then incubated for 20-24 h at 37° C., and growth was recorded as 00600 in a Thermo Scientific™ Varioskan™ Flash Multimode Reader.
Method for Tables 4-7. Interaction of Cannabinoids CBC, CBD and CBG with Terpenes and Daptomycin:
FICI values was determined in a 96 well checkerboard format using the MIC assay for cannabinoids (compound A), terpenes (compound B), and daptomycin (compound C) alone and in combinations. Terpene stocks were prepared in DMSO and diluted in the growth medium. The fractional inhibitory concentration for each compound was calculated as follows: FICA=(MIC of compound A in the presence of compound B)/(MIC of compound A alone). Similarly, the FICs for compounds Band C were calculated. The FICI was calculated as FICA plus FICs plus FICc.

[3] = tested on: E. faecium clinical isolate 69C6 (vancomycin resistant); conditions: for Fold reduction in daptomycin MIC in combination with the cannabinoid: E. faecium isolate 69C6
[4] = tested on: E. faecium clinical isolate 55A6 (vancomycin and daptomycin resistant); test: microbe, parasite or virus in culture; conditions: Enterococcus faecium
[5] = tested on: biofilms of E. faecium strain 3303; test: Biofilm treatment (crystal violet mass, viable bacteria); format: cell-based, Enterococcus faecium; conditions: 48 h biofilms of strain 3303 treated 72 h; FIG. 4
Description: The data in FIG. 4 was generated by growing biofilms of E. faecium strain 3303 for 48 h without cannabinoids, then treating the biofilms with cannabinoids for 72 h. The mass of the biofilm was quantitated by crystal violet staining. Viable bacteria in the biofilm were quantitated by scrapping biofilm then counting the viable bacteria. As illustrated, CBO and CBG illustrate a surprising degree of antibiotic activity against the strain 3303 of E. faecium. Of note, CBC was bactericidal against planktonic Enterococci.

[6] = tested on: enterococci; conditions: MIC 4 mg/L; 6 mg/kg doses; enterococcal bacteremia; cited from earlier work
[7] = E. faecium 3303, pairwise, with daptomycin
[8] = E. faecium 3303, pairwise, with trans-caryophyllene
[9] = E. faecium 3303, triple, with daptomycin and trans-caryophyllene
[10] = E. faecium 3303, pairwise, with CBC
[11] = E. faecium 3303, pairwise, with CBD
[12] = E. faecium 3303, pairwise, with CBG
[13] = E. faecium 3303, text b61, Table 5
[14] = E. faecium 3303, triple, with CBC and trans-caryophyllene
[15] = E. faecium 3303, triple, with CBG and trans-caryophyllene

| Structure (SMILES) | MIC ([1]; Staphylococcus epidermidis) [µg/mL] | MIC Alone ([2]; E. faecium 3303) [µg/mL] | MIC In combination [2, 7] [µg/mL] | Max. fold change in MIC [2, 7] | MIC In combination [2, 8] [µg/mL] | Max. fold change in MIC [2, 8] | MIC In combination [2, 9] [µg/mL] | Max. fold change in MIC [2, 9] | MIC [2] [µg/mL] | Fold reduction in daptomycin MIC in combination with the cannabinoid [3] [Fold] | MIC [4] [µg/mL] | inhibition of E. faecium biofilm growth [5] | other results |
| --- | --- | --- | --- | --- | --- | --- | --- | --- | --- | --- | --- | --- | --- |
| CCCCCc1cc(O)c2c(c1)OC(C)(CCC=C(C)C)C=C2 (centres unmarked) [CBC, cannabichromene] | 4 (≈ 12.7 µM) | 2 | 0.5 | 4 l fold | 0.125 | 16 l fold | 0.25 | 8 l fold | 1 | 32 | 1 (≈ 3.18 µM) | – | – |
| C=C(C)[C@@H]1CCC(C)=C[C@H]1c1c(O)cc(CCCCC)cc1O [CBD, cannabidiol, reference compound] | – | 2 | 1 | 4″′ fold | 0.125 | 16″′ fold | 0.5 | 4 fold | 4 | – | 2 (≈ 6.36 µM) | surprisingly effective at inhibiting E. faecium biofilm growth | MIC ([1]; Staphylococcus epidermidis ATCC 12228, read-out: MIC): 2 µg/mL (≈ 6.36 µM) |
| CCCCCc1cc(O)c(C/C=C(\C)CCC=C(C)C)c(O)c1 [CBG, cannabigerol] | 2 (≈ 6.32 µM) | – | 0.125 | 32″′ fold | 0.125 | 16″′ fold | 0.25 | 4 fold | – | 4 | 1 (≈ 3.16 µM) | surprisingly effective at inhibiting E. faecium biofilm growth | – |
| CCCCCCCCCC(=O)N[C@@H](Cc1c[nH]c2ccccc12)C(=O)N[C@H](CC(N)=O)C(=O)N[C@@H](CC(=O)O)C(=O)N[C@@H]1C(=O)NCC(=O)N[C@@H](CCCN)C(=O)N[C@@H](CC(=O)O)C(=O)N[C@H](C)C(=O)N[C@@H](CC(=O)O)C(=O)NCC(=O)N[C@H](CO)C(=O)N[C@@H]([C@H](C)CC(=O)O)C(=O)N[C@@H](CC(=O)c2ccccc2N)C(=O)O[C@@H]1C [Daptomycin, daptomycin, reference compound] | – | 8 | – | – | 0.5 | 8 l fold and 8″′ fold | – | – | – | – | – | – | MIC Alone ([2]; E. faecium 3303, listed as daptomycin): 4 µg/mL; MIC In combination [2, 10]: 0.03125 µg/mL; Max. fold change in MIC [2, 10]: 128 l fold; Max. fold change in MIC ([2]; E. faecium 3303, pairwise, with CBC, listed as daptomycin): 128 fold; MIC In combination [2, 11]: 0.25 µg/mL; Max. fold change in MIC [2, 11]: 16″′ fold; MIC In combination [2, 12]: 0.25 µg/mL; Max. fold change in MIC [2, 12]: 32″′ fold; MIC of daptomycin (alone) [2, 13]: 8 µg/mL; MIC of daptomycin in the presence of CBO and trans caryophyllene [2, 13]: 0.03 µg/mL; MIC In combination [2, 14]: 4 µg/mL; Max. fold change in MIC [2, 14]: 2 l fold; MIC In combination ([2]; E. faecium 3303, triple, with CBD and trans-caryophyllene): 0.03 µg/mL; Max. fold change in MIC ([2]; E. faecium 3303, triple, with CBD and trans-caryophyllene, listed as daptomycin): 256 fold; MIC In combination [2, 15]: 2 µg/mL; Max. fold change in MIC [2, 15]: 4 l fold; MIC ([3]; clinical enterococcal strain 69C6, vancomycin resistant): 1 µg/mL (≈ 0.617 µM); probability of attaining target pharmacokinetic parameters [6]: 1.5-5.5% |

— patent US11744819B2, “Antibiotic cannabinoid-terpene formulations” (priority 2019, dated 2023)
